According to US8338565B2, “Macrocyclic compounds for inhibition of tumor necrosis factor alpha” (Ensemble Therapeutics Corporation, priority 2008, dated 2012):
Like-named read-outs stand apart in the source and are kept apart here. Numbered stars: 1 amine (or outer) side, 2 acyl side, 3 side chain; on linkers, the order of the positions; unused ones are H or OH. Bridge positions count the residues as written; N and C are the ends. Square brackets hold non-standard residues; d marks the D form. Peptide text beside a SMILES is read from it. Phe(4-COOH) = N[C@@H](Cc1ccc(C(=O)O)cc1)C(=O)O; Phe(2,4-Cl2) = N[C@@H](Cc1ccc(Cl)cc1Cl)C(=O)O; Bip = N[C@@H](Cc1ccc(-c2ccccc2)cc1)C(=O)O; dPhe(4-NH2) = Nc1ccc(C[C@@H](N)C(=O)O)cc1; Phe(4-Br) = N[C@@H](Cc1ccc(Br)cc1)C(=O)O; Phe(4-NH2) = Nc1ccc(C[C@H](N)C(=O)O)cc1; d(hPhe) = N[C@H](CCc1ccccc1)C(=O)O; 2Thi = N[C@@H](Cc1cccs1)C(=O)O; d2Thi = N[C@H](Cc1cccs1)C(=O)O; Suc = O=C(CCC(=O)[*:2])[*:1]; βAla = NCCC(=O)O

Columns and labels:
[1] = tested on: TNF-α (degradation of IkB in HeLa cells or A431 cells); experiment: Human cell-based assay: inhibition of TNF-α induced degradation of IkB; conditions: for inhibition at 25 µM: 25 μM compound, read-out: Inhibition at Various Compound Concentrations, 25 μM; for inhibition at 10 µM: read-out: Inhibition at Various Compound Concentrations, 10 μM; for inhibition at 5 µM: read-out: Inhibition at Various Compound Concentrations, 5 μM
[2] = biological target: T1, TNFα / TNFα receptor (TNFα R1/Fc) (Homo sapiens, UniProt P01375); experiment: Inhibition of binding of TNFα to the TNFα receptor (plate ELISA competition); conditions: Table 2
T1 construct: purchased R&D Systems
Outline: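 Plates were coated with TNFα at 15 nM. Test compound and 8.33 nM receptor-Fc (PBST, 2% DMSO) were first mixed in solution for 30 min at room temperature, then transferred to the plates for another 30 min. Competition was read by absorbance at 450 nm after HRP anti-human IgG Fc detection with TMB.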

[3] = read-out: Activity (IC50, inhibition of TNFα binding to TNFα R1/Fc)
[4] = 10 μM compound, HeLa or A431 cells
[5] = 5 μM compound, HeLa or A431 cells
[6] = Activity (IC50, inhibition of TNFα binding to TNFα R1/Fc)

T1 sequence (P01375 77-233 limits assumed, species assumed): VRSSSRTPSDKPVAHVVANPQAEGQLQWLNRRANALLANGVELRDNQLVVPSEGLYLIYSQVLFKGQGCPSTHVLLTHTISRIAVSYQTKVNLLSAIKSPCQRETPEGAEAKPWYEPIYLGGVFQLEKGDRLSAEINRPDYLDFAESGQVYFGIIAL

Row | Structure (SMILES) | IC50 [2, 3] [µM] | inhibition at 25 µM ([1]; HeLa or A431 cells) [%] | inhibition at 10 µM [1, 4] [%] | inhibition at 5 µM [1, 5] [%] | inhibition at 10 µM [1] [%] | IC50 [2, 6] [µM] | inhibition at 5 µM [1] [%]
1 | COC(=O)[C@H](CC(=O)O)NC(=O)[C@@H]1Cc2ccc(cc2)NC(=O)CCC(=O)N[C@H](Cc2cccs2)C(=O)N[C@@H](Cc2ccc(-c3ccccc3)cc2)C(=O)N[C@H](Cc2ccccc2)C(=O)N1 [Compound 29] ([d2Thi][Bip][dF][Phe(4-NH2)]D-OMe; linker N-4 via Suc) | < 10 | < 10 | – | – | – | – | –
2 | O=C1CCC(=O)N[C@H](CCc2ccccc2)C(=O)N[C@@H](Cc2ccc(Br)cc2)C(=O)N[C@H](Cc2ccccc2)C(=O)N[C@@H](C(=O)O)Cc2ccc(cc2)N1 [Compound 111] ([d(hPhe)][Phe(4-Br)][dF][dPhe(4-NH2)]-OH; linker N-4 via Suc) | 10 to 30 | – | < 10 | – | – | – | –
3 | O=C(O)[C@@H]1Cc2ccc(cc2)NC(=O)[C@H](O)[C@@H](O)C(=O)N[C@H](Cc2ccsc2)C(=O)N[C@@H](Cc2ccc(-c3ccccc3)cc2)C(=O)N[C@H](Cc2ccccc2)C(=O)N1 [Compound 318] | < 10 | – | 10 to 50 | < 10 | – | – | –
4 | O=C(O)[C@@H]1Cc2ccc(cc2)NC(=O)[C@H](O)[C@@H](O)C(=O)N[C@H](Cc2cccs2)C(=O)N[C@@H](Cc2ccc(-c3ccccc3)cc2)C(=O)N[C@@H](CCc2ccccc2)C(=O)N1 [Compound 290] | < 10 | – | < 10 | < 10 | – | – | –
5 | O=C(O)[C@@H]1Cc2ccc(cc2)NC(=O)[C@H](O)[C@@H](O)C(=O)N[C@H](Cc2cccs2)C(=O)N[C@@H](Cc2ccc(-c3ccccc3)cc2)C(=O)N[C@H](CCc2ccccc2)C(=O)N1 [Compound 289] | < 10 | – | < 10 | < 10 | – | – | –
6 | O=C1COc2ccc(cc2)C[C@@H](C(=O)N[C@@H](Cc2ccc(O)cc2)C(=O)O)NC(=O)[C@@H](CCc2ccccc2)NC(=O)[C@H](Cc2ccc(-c3ccccc3)cc2)NC(=O)[C@@H](Cc2cccs2)N1 [Compound 300] | – | – | – | – | 10 to 50 | < 10 | –
7 | O=C1CCC(=O)N[C@H](Cc2cccs2)C(=O)N[C@@H](Cc2ccc(Cl)cc2Cl)C(=O)N[C@H](Cc2ccccc2)C(=O)N[C@H](C(=O)O)Cc2ccc(cc2)N1 [Compound 82] ([d2Thi][Phe(2,4-Cl2)][dF][Phe(4-NH2)]-OH; linker N-4 via Suc) | 10 to 30 | – | < 10 | < 10 | – | – | –
8 | O=C1CCC(=O)N[C@H](Cc2cccs2)C(=O)N[C@@H](Cc2ccc(Br)cc2)C(=O)N[C@H](Cc2ccccc2)C(=O)N[C@H](C(=O)N[C@@H](Cc2ccccc2)C(=O)O)Cc2ccc(cc2)N1 [Compound 201] ([d2Thi][Phe(4-Br)][dF][Phe(4-NH2)]F-OH; linker N-4 via Suc) | < 10 | – | 10 to 50 | – | – | – | –
9 | O=C1COc2ccc(cc2)C[C@@H](C(=O)NCCO)NC(=O)[C@H](Cc2ccccc2)NC(=O)[C@@H](Cc2ccc(-c3ccccc3)cc2)NC(=O)[C@H](Cc2cccs2)N1 [Compound 390] | – | – | – | – | 50 to 80 | < 10 | < 10
10 | O=C1COc2ccc(cc2)C[C@@H](C(=O)N[C@@H](Cc2ccccc2)C(=O)O)NC(=O)[C@@H](CCc2ccccc2)NC(=O)[C@H](Cc2ccc(-c3ccccc3)cc2)NC(=O)[C@@H](CCc2ccccc2)N1 [Compound 158] | – | – | – | – | 50 to 80 | < 10 | 50 to 80
11 | O=C(O)CN(Cc1ccccc1)C(=O)[C@@H]1Cc2ccc(cc2)OCC(=O)N[C@H](Cc2cccs2)C(=O)N[C@@H](Cc2ccc(-c3ccccc3)cc2)C(=O)N[C@H](CCc2ccccc2)C(=O)N1 [Compound 323] | – | – | – | – | 10 to 50 | < 10 | 10 to 50
12 | O=C1CCC(=O)N[C@@H](Cc2cccs2)C(=O)N[C@@H](Cc2ccc(-c3ccccc3)cc2)C(=O)N[C@H](Cc2ccccc2)C(=O)N[C@H](C(=O)O)Cc2ccc(cc2)N1 [Compound 43] ([2Thi][Bip][dF][Phe(4-NH2)]-OH; linker N-4 via Suc) | > 100 | < 10 | – | – | – | – | –
13 | O=C1N[C@H](CCc2ccccc2)C(=O)N[C@@H](C(=O)O)Cc2ccc(cc2)NC(=O)[C@H](O)[C@@H](O)C(=O)N[C@H](Cc2cccs2)C(=O)N[C@H]1Cc1ccc(-c2ccccc2)cc1 [Compound 236] | < 10 | – | 10 to 50 | 10 to 50 | – | – | –
14 | C[C@H](NC(=O)[C@@H]1Cc2ccc(cc2)OCC(=O)N[C@H](Cc2cccs2)C(=O)N[C@@H](Cc2ccc(-c3ccccc3)cc2)C(=O)N[C@H](CCc2ccccc2)C(=O)N1)C(=O)O [Compound 302] | < 10 | – | 10 to 50 | 10 to 50 | – | – | –
15 | O=C1COc2ccc(cc2)C[C@@H](C(=O)O)NC(=O)[C@H](Cc2ccccc2)NC(=O)[C@H](Cc2ccc(-c3ccc(F)cc3)cc2)NC(=O)[C@H](Cc2cccs2)N1 [Compound 363] | < 10 | – | – | – | 10 to 50 | – | 50 to 80
16 | COc1ccc(-c2ccc(C[C@@H]3NC(=O)[C@H](Cc4cccs4)NC(=O)COc4ccc(cc4)C[C@@H](C(=O)O)NC(=O)[C@H](Cc4ccccc4)NC3=O)cc2)cc1 [Compound 364] | < 10 | – | – | – | 10 to 50 | – | 50 to 80
17 | O=C1COc2ccc(cc2)C[C@@H](C(=O)O)NC(=O)[C@H](Cc2ccccc2)NC(=O)[C@H](Cc2ccc(-c3ccncc3)cc2)NC(=O)[C@H](Cc2cccs2)N1 [Compound 366] | < 10 | – | – | – | < 10 | – | < 10
18 | O=C(O)[C@H](Cc1ccccc1)NC(=O)[C@@H]1Cc2ccc(cc2)NC(=O)[C@H](O)[C@@H](O)C(=O)N[C@H](Cc2cccs2)C(=O)N[C@@H](Cc2ccc(-c3ccccc3)cc2)C(=O)N[C@H](CCc2ccccc2)C(=O)N1 [Compound 350] | < 10 | – | 10 to 50 | 10 to 50 | – | – | –
19 | O=C1COc2ccc(cc2)C[C@@H](C(=O)N[C@@H](CCc2ccccc2)C(=O)O)NC(=O)[C@H](Cc2ccccc2)NC(=O)[C@H](Cc2ccc(-c3ccccc3)cc2)NC(=O)[C@H](Cc2cccs2)N1 [Compound 328] | – | – | – | – | 10 to 50 | < 10 | –

The next lines start with results.

Row | IC50 [2, 3] [µM] | Structure (SMILES) | inhibition at 25 µM ([1]; HeLa or A431 cells) [%] | inhibition at 10 µM [1, 4] [%] | inhibition at 5 µM [1, 5] [%] | inhibition at 10 µM [1] [%] | IC50 [2, 6] [µM] | inhibition at 5 µM [1] [%]
20 | < 10 | C[C@@H](NC(=O)[C@@H]1Cc2ccc(cc2)OCC(=O)N[C@@H](Cc2cccs2)C(=O)N[C@@H](Cc2ccc(-c3ccccc3)cc2)C(=O)N[C@@H](Cc2ccccc2)C(=O)N1)C(=O)O [Compound 341] | – | < 10 | – | – | – | –
21 | < 10 | O=C1CCC(=O)N[C@H](CCc2ccccc2)C(=O)N[C@@H](Cc2ccc(Cl)cc2Cl)C(=O)N[C@H](Cc2ccccc2)C(=O)N[C@@H](C(=O)O)Cc2ccc(cc2)N1 [Compound 112] ([d(hPhe)][Phe(2,4-Cl2)][dF][dPhe(4-NH2)]-OH; linker N-4 via Suc) | – | < 10 | – | – | – | –
22 | < 10 | O=C(O)CCNC(=O)[C@@H]1Cc2ccc(cc2)OCC(=O)N[C@@H](Cc2cccs2)C(=O)N[C@@H](Cc2ccc(-c3ccccc3)cc2)C(=O)N[C@@H](Cc2ccccc2)C(=O)N1 [Compound 339] | – | 10 to 50 | < 10 | – | – | –
23 | < 10 | O=C(O)CNC(=O)[C@@H]1Cc2ccc(cc2)OCC(=O)N[C@H](Cc2cccs2)C(=O)N[C@@H](Cc2ccc(-c3ccccc3)cc2)C(=O)N[C@H](CCc2ccccc2)C(=O)N1 [Compound 321] | – | 10 to 50 | < 10 | – | – | –
24 | < 10 | C[C@H](NC(=O)[C@@H]1Cc2ccc(cc2)OCC(=O)N[C@@H](Cc2cccs2)C(=O)N[C@H](Cc2ccc(-c3ccccc3)cc2)C(=O)N[C@@H](Cc2ccccc2)C(=O)N1)C(=O)O [Compound 385] | – | > 80 | 50 to 80 | – | – | –
25 | < 10 | O=C(O)CCNC(=O)[C@@H]1Cc2ccc(cc2)NC(=O)CCC(=O)N[C@H](Cc2cccs2)C(=O)N[C@@H](Cc2ccc(-c3ccccc3)cc2)C(=O)N[C@H](Cc2ccccc2)C(=O)N1 [Compound 21] ([d2Thi][Bip][dF][Phe(4-NH2)][βAla]-OH; linker N-4 via Suc) | < 10 | – | – | – | – | –
26 | < 10 | O=C1CCNC(=O)c2ccc(cc2)C[C@@H](C(=O)O)NC(=O)[C@@H](Cc2ccccc2)NC(=O)[C@H](Cc2ccc(-c3ccccc3)cc2)NC(=O)[C@@H](CCc2ccccc2)N1 [Compound 248] ([βAla][d(hPhe)][Bip][dF][Phe(4-COOH)]-OH; lactam N-5) | – | 10 to 50 | < 10 | – | – | –
27 | < 10 | O=C(O)CCNC(=O)[C@@H]1Cc2ccc(cc2)OCC(=O)N[C@@H](Cc2cccs2)C(=O)N[C@H](Cc2ccc(-c3ccccc3)cc2)C(=O)N[C@@H](Cc2ccccc2)C(=O)N1 [Compound 319] | – | < 10 | < 10 | – | – | –
28 | 30 to 100 | C[C@@H](NC(=O)[C@@H]1Cc2ccc(cc2)NC(=O)CCC(=O)N[C@H](Cc2cccs2)C(=O)N[C@@H](Cc2ccc(-c3ccccc3)cc2)C(=O)N[C@H](Cc2ccccc2)C(=O)N1)C(=O)O [Compound 24] ([d2Thi][Bip][dF][Phe(4-NH2)][dA]-OH; linker N-4 via Suc) | < 10 | – | – | – | – | –
29 | < 10 | CC(C)(NC(=O)[C@@H]1Cc2ccc(cc2)OCC(=O)N[C@H](Cc2cccs2)C(=O)N[C@@H](Cc2ccc(-c3ccccc3)cc2)C(=O)N[C@H](CCc2ccccc2)C(=O)N1)C(=O)O [Compound 297] | – | < 10 | < 10 | – | – | –
30 | < 10 | COC(=O)[C@H](CC(=O)O)NC(=O)[C@@H]1Cc2ccc(cc2)OCC(=O)N[C@H](Cc2cccs2)C(=O)N[C@@H](Cc2ccc(-c3ccccc3)cc2)C(=O)N[C@H](CCc2ccccc2)C(=O)N1 [Compound 325] | – | < 10 | – | – | – | –
